Laboratory results: publication PMC9403717, “Ruthenium complexes show potent inhibition of AKR1C1, AKR1C2, and AKR1C3 enzymes and anti-proliferative action against chemoresistant ovarian cancer cell line” (Frontiers in Pharmacology, 2022)

Tested on: HIO80 cells
Assay: Cell proliferation assay (alamarBlue), control cell line HIO80
Type: cell-based, human
Conditions: 48 h incubation
Procedure: The cell line COV362 (CVCL_2,420) was originally established from a high-grade ovarian serous adenocarcinoma from a metastatic site in the pleural effusion ([van den Berg-Bakker et al., 1993]) and was purchased from ECACC (ECACC 07071910) as p37 on 13 October 2017. The growth medium for COV362 cells was DMEM (D5546; Sigma–Aldrich GmbH), with 10% FBS (F9665; Sigma–Aldrich GmbH) and 2 mM L-glutamine (G7513; Sigma–Aldrich GmbH). COV362 cells in passages p37 + 12 to p37 + 17 were used in this study and seeded at a concentration of 3.5 cells/ml × 10^4 cells/ml for proliferation studies and at a concentration of 5.3 × 10^5/ml for migration studies. The cell line OVCAR-4 (CVCL_1,627) is a high-grade serous ovarian adenocarcinoma cell line established from a patient refractory to cisplatin ([Johnson et al., 1997]). The cell line was purchased from Merck on 19 March 2021. The growth medium for OVCAR-4 cells was RPMI-1640 (Sigma R5586) supplemented with 2 mM glutamine (G7513; Sigma–Aldrich GmbH), 10% FBS (F9665; Sigma–Aldrich GmbH), 0.25 μg/ml insulin (I9278; Sigma–Aldrich GmbH). OVCAR-4 cells in passages p+6 to p+15 were used in this study and seeded at a concentration of 6 cells/ml × 10^4 cells/ml. The control cell line HIO80 (CVCL_E274) was obtained from Andrew K. Godwin (University of Kansas Medical Center, Kansas, United States) on 20 October 2017 as p+72. It was originally established from ovarian surface epithelium ([Yang et al., 2004]). HIO80 cells were grown in RPMI medium (R5886, Sigma–Aldrich GmbH) supplemented with 10% FBS (F9665; Sigma–Aldrich GmbH), 2 mm L-glutamine (G7513; Sigma–Aldrich GmbH) and 6.6 µg/ml insulin (I9278; Sigma–Aldrich GmbH). HIO80 cells in passages p72 + 8 to p72 + 19 were used in this study and seeded at a concentration of 2 × 10^4 cells/mL. HIO80 in passage +10 was authenticated by short tandem repeats (STR) profiling performed by ATCC on 22 February 2019. Cells were grown in a humidified atmosphere containing 5% CO2 at 37°C. All cell lines were negative for mycoplasma infection which was periodically tested using MycoAlert^TM mycoplasma detection kit (Lonza, Basel, Switzerland).
The effect of ruthenium compounds on the proliferation of ovarian cancer cell lines COV362 and OVCAR-4 and the control cell line HIO80 was analyzed using the cell proliferation reagent alamarBlue HS (A50101; Thermo Fisher Scientific) following the manufacturer’s instructions.
Cells were seeded in 96-well plates in 100 µL of medium and allowed to adhere and grow for 24 h. […] Cisplatin and carboplatin purchased from Sigma–Aldrich GmbH (cat. number: PHR1624, lot: LRAB7778) and (cat. number: C2538, lot: MKCK1243) were dissolved in sterile water. Working solutions were prepared by a serial dilution of stock solutions with a culture medium. After the initial incubation, cells were treated with ruthenium complexes, cisplatin, and carboplatin. A range of final concentrations between 0.001 and 300 µM were used for ruthenium complexes and cisplatin, and between 0.001 µM and 1 mM for carboplatin. After 48 h of incubation, plates were incubated with 20 µL of alamarBlue. After 4 h absorbance was measured with a BioTek microplate spectrophotometer at 570 nm, with the reference wavelength set at 600 nm. First, the background value of a well containing the active substance without cells was subtracted, then the average values for duplicates/triplicates were calculated. The absorbance of the well containing only untreated cells was used as a normalization control. The half-maximal […] concentration (IC50) was determined for all ruthenium complexes with a growth-inhibiting effect on cells by constructing a dose-response curve (Graph Pad Prism, Version 8.0).

SMILES	IC50 [µM]
Cc1ccc(C(C)C)cc1.O=C(C=C([O][Ru][Cl])c1ccc(I)cc1)C(F)(F)F [Compound 1]	41.9
C1N2CN3CN1CP(C2)C3.Cc1ccc(C(C)C)cc1.F[P-](F)(F)(F)(F)F.O=C(C=C([O][Ru+])c1ccc(I)cc1)C(F)(F)F [Compound 2]	92
CN(C)c1ccc(C(=CC(=O)C(F)(F)F)[O][Ru][Cl])cc1.Cc1ccc(C(C)C)cc1 [Compound 3, (η^6-p-cymene)chlorido(4,4,4-trifluoro-1-(4-(dimethylamino)phenyl)-1,3-butandionato)ruthenium(II)]	34.7
Cc1ccc(C(C)C)cc1.O=C(C=C([O][Ru][Cl])c1ccc2c(c1)OCO2)C(F)(F)F [Compound 5]	60.5
C1N2CN3CN1CP(C2)C3.Cc1ccc(C(C)C)cc1.F[P-](F)(F)(F)(F)F.O=C(C=C([O][Ru+])c1ccc2c(c1)OCO2)C(F)(F)F [Compound 6]	187
Cc1ccc(C(C)C)cc1.[Cl-].[O-]c1c(I)cc(Cl)c2cccnc12.[Ru+2] [Compound 7]	14.3
C1N2CN3CN1CP(C2)C3.Cc1ccc(C(C)C)cc1.F[P-](F)(F)(F)(F)F.[O-]c1c(I)cc(Cl)c2cccnc12.[Ru+2] [Compound 8]	32.5
Cc1ccc(C(C)C)cc1.O=[N+]([O-])c1ccc([O][Ru][Cl])c2ncccc12 [Compound 9, (η ^6-p-Cymene) (nitroxolinato)chloridoruthenium (II)]	12.8
C1N2CN3CN1CP(C2)C3.Cc1ccc(C(C)C)cc1.F[P-](F)(F)(F)(F)F.O=[N+]([O-])c1ccc([O][Ru+])c2ncccc12 [Compound 10, (η ^6-p-cymene)(nitroxolinato)(pta)ruthenium(II) hexafluorophosphate]	> 200
